Key:
Nitric oxide synthase 1 = Nitric oxide synthase 1 (Homo sapiens, UniProt P29475); assay: Inhibitory activity against neuronal nitric oxide synthase in human
Nitric oxide synthase 3 = target: T1, Nitric oxide synthase 3 (Homo sapiens, UniProt P29474); assay: Inhibitory activity against endothelial nitric oxide synthase in human
T1 sequence (P29474 whole entry): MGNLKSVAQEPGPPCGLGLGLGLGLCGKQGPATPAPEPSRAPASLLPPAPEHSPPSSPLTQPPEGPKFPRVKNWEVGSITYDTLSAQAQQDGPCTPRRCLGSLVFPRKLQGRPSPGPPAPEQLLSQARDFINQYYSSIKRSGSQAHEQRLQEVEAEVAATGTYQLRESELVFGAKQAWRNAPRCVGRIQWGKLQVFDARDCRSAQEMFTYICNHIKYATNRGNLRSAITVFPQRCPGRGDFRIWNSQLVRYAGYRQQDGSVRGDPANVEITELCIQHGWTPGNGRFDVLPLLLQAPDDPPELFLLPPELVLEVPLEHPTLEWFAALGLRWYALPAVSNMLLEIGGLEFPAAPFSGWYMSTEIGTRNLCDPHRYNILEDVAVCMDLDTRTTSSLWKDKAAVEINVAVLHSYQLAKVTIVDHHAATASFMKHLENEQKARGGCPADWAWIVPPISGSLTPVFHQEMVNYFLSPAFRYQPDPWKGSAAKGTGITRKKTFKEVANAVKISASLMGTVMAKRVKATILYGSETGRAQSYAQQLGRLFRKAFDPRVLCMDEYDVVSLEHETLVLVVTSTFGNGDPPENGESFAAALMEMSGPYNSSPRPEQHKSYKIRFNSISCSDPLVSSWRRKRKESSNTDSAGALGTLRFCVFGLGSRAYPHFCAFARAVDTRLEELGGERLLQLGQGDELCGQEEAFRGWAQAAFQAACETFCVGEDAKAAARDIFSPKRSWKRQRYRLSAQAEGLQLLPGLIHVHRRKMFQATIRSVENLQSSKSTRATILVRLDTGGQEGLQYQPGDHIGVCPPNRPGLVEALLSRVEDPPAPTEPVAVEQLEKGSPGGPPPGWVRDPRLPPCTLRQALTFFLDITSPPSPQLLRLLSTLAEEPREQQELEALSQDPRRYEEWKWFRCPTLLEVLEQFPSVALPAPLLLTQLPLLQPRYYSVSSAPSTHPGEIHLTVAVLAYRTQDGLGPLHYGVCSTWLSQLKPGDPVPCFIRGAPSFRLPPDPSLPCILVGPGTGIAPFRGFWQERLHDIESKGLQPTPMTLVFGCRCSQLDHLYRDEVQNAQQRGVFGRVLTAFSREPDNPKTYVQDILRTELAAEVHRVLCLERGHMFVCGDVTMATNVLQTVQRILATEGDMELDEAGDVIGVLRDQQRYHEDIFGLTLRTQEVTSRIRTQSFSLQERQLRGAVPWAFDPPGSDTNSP

Chain of Nitric oxide synthase 1 (P29475 whole entry): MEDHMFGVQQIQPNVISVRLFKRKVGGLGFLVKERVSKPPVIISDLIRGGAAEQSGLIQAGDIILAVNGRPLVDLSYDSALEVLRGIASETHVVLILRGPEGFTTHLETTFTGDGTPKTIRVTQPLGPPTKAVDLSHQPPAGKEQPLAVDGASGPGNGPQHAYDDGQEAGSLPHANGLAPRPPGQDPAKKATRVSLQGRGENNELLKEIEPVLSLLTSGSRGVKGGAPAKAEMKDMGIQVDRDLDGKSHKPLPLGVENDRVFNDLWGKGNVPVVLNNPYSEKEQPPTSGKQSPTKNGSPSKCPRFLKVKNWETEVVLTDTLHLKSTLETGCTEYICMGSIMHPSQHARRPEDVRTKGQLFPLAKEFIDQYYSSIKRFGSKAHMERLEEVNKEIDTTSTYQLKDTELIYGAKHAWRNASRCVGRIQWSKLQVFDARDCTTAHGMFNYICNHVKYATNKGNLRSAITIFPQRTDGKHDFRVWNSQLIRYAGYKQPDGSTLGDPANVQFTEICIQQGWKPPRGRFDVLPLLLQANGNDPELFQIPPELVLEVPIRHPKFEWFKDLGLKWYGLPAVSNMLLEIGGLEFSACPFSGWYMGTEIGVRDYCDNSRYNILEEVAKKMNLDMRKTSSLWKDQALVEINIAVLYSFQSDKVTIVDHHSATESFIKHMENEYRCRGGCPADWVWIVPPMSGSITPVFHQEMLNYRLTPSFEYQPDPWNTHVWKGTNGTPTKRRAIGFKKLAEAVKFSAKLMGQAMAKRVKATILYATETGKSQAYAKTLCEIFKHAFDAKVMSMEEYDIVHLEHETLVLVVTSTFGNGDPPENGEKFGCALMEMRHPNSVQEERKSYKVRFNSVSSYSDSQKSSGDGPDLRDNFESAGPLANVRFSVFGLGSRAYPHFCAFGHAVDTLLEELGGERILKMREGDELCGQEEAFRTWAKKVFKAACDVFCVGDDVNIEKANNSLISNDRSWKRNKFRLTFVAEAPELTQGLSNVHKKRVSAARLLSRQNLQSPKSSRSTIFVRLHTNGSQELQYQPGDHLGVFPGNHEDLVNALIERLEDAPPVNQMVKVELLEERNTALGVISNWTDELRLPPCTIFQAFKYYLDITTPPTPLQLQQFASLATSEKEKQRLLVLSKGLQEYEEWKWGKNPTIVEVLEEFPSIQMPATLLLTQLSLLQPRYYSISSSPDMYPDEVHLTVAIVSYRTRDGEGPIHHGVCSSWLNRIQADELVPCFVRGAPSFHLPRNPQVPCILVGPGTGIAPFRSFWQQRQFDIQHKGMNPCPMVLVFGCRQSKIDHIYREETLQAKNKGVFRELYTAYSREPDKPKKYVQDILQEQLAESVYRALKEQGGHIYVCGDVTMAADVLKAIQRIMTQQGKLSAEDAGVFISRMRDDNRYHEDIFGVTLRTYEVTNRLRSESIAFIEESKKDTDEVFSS

Compound	IC50 (Nitric oxide synthase 1) [nM]	IC50 (Nitric oxide synthase 3) [µM]
CCc1cc(-c2cccc(N)n2)c(OC)cc1CCN(C)C	75	16.5
CCc1cc(-c2cccc(N)n2)c(OC)cc1CCCN(C)C	75	> 7.7
COc1cc(-c2cccc(N)n2)c(OC)cc1CN(C)C	810	> 32
COc1cc(-c2cccc(N)n2)c(OC)cc1OCCN(C)C	112	21.9
CCc1cc(-c2cccc(N)n2)c(OC)cc1CN(C)C	–	8.83
COc1cc(-c2cccc(N)n2)c(OC)cc1CCCN(C)C	200	> 32
COc1cc(-c2cccc(N)n2)c(OC)cc1CCN(C)C	235	> 32
CCc1cc(-c2cccc(N)n2)c(OC)cc1OCCN(C)C	58	3.71

Source: ChEMBL document CHEMBL1137188, “Substituted 6-phenyl-pyridin-2-ylamines: selective and potent inhibitors of neuronal nitric oxide synthase” (Bioorg Med Chem Lett, 2004)
